Key:
[1] = biological target: T1, Human GPR40 (Homo sapiens, UniProt O14842); assay: FLIPR assay (agonist-induced calcium mobilization); type: cell-based; design: expressed in transfected cells; details: GPR40/CHO NFAT BLA cells
Protocol: (§1) Human and mouse GPR40 stable cell-lines were generated in CHO cells stably expressing NFAT BLA (Beta-lactamase). A human GPR40 stable cell-line was generated in HEK cells stably expressing the aequorin expressing reporter. The expression plasmids were transfected using lipofectamine (Life Technologies) following manufacturer's instructions. Stable cell-lines were generated following drug selection.
FLIPR (Fluorimetric Imaging Plate Reader, Molecular Devices) assays were performed to measure agonist-induced calcium mobilization of the stable clones. For the FLIPR assay, one day before assay, GPR40/CHO NFAT BLA cells were seeded into black-wall-clear-bottom 384-well plates (Costar) at 1.4×10e4 cells/20 μL medium/well. The cells were incubated with 20 μl/well of the assay buffer (HBSS, 0.1% BSA, 20 mM HEPES, 2.5 mM probenecid, pH 7.4) containing 8 μM fluo-4, AM, 0.08% pluronic acid at room temperature for 100 minutes. Fluorescence output was measured using FLIPR. Compounds were dissolved in DMSO and diluted to desired concentrations with assay buffer. 13.3 μL/well of compound solution was added.

[2] = biological target: T1, Human GPR40; assay: Inositol Phosphate Turnover (IP1) Assay 1; type: cell-based; design: expressed in transfected cells; host or cells: HEK cells stably expressing the aequorin reporter; details: HEK cells stably expressing human GPR40, 96-well, 3H-inositol labeling, SPA beads
Protocol: as §1
The assay was performed in 96-well format. HEK cells stably expressing human GPR40 were plated to be 60-80% confluent within 72 h. After 72 h, the plates were aspirated and the cells washed with inositol-free DMEM (ICN). The wash media was replaced with 150 μL of 3H-inositol labeling media (inositol-free media containing 0.4% human albumin or 0.4% mouse albumin, 1× pen/strep antibiotics, glutamine, 25 mM HEPES to which was added 3H-myo-inositol NEN #NET114A 1 mCi/mL, 25 Ci/mmol diluted 1:150 in loading media with a final specific radioactivity of 1 μCi/150 μL). Alternatively, the human and mouse albumin can be added after the overnight labeling step before the addition of LiCl.
The assay was typically run the next day after 18 h labeling. On the day of the assay, 5 μL of 300 mM LiCl was added to all wells and incubated at 37 degrees for 20 min 0.75 μL of 200× compounds were added and incubated with the cells for 60 min at 37 degrees. The media was then aspirated off and the assay terminated with the addition of 60 μL 10 mM formic acid. The cells were lysed for 60 min at room temperature. 15-30 μL of lysate was mixed with 70 μL/1 mg YSi SPA beads (Amersham) in clear bottom Isoplates. The plates were shaken for 2 h at room temperature. Beads were allowed to settle and the plates were counted in the Wallac Microbeta.

T1 sequence (O14842 whole entry): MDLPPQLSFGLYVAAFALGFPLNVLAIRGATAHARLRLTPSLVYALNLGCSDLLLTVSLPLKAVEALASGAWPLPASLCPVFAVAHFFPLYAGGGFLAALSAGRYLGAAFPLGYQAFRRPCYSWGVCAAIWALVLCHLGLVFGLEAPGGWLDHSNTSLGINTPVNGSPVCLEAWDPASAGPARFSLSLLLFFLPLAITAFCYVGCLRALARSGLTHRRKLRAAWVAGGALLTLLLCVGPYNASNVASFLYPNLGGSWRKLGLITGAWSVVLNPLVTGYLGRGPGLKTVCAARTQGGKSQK

| Structure (SMILES) | EC50 [1] | EC50 [2] |
| --- | --- | --- |
| CS(=O)(=O)CCCOc1ccc(-c2cc(COc3cc4c(cn3)[C@H]3[C@@H](C4)[C@@H]3C(=O)O)c(F)cc2C(F)(F)F)c(F)c1 [Example 8, (5aR,6S,6aS)-3-((2′,4-difluoro-4′-(3-(methyl-sulfonyl)-propoxy)-6-(trifluoromethyl)-[1,1′-biphenyl]-3-yl)methoxy)-5,5a,6,6a-tetrahydro-cyclopropa[4,5]cyclo-penta[1,2-c]pyridine-6-carboxylic acid] | 9.2 nM | 6.54 nM |
| CC(C)(O)CCOc1ccc(-c2cc(COc3cc4c(cn3)[C@H]3[C@@H](C4)[C@@H]3C(=O)O)c(F)cc2C(F)(F)F)cc1 [Example 5, (5aR,6S,6aS)-3-((4-fluoro-4′-(3-hydroxy-3-methylbutoxy)-6-(trifluoromethyl)-[1,1′-biphenyl]-3-yl)methoxy)-5,5a,6,6a-tetrahydrocyclopropa[4,5]cyclopenta[1,2-c]pyridine-6-carboxylic acid] | 24.9 nM | 6.24 nM |
| CC(C)(O)CCOc1ccc(-c2cc(COc3cc4c(cn3)[C@H]3[C@@H](C4)[C@@H]3C(=O)O)c(F)cc2C(F)(F)F)c(F)c1 [Example 7, (5aR,6S,6aS)-3-((2′,4-difluoro-4′-(3-hydroxy-3-methylbutoxy)-6-(trifluoro-methyl)-[1,1′-biphenyl]-3-yl)methoxy)-5,5a,6,6a-tetrahydrocyclopropa [4,5]cyclopenta[1,2-c] pyridine-6-carboxylic acid] | 11.2 nM | 11.4 nM |
| Cc1nc(OCCC(C)(O)C(F)F)ccc1-c1cc(COc2cc3c(cn2)[C@H]2[C@@H](C3)[C@@H]2C(=O)O)c(F)cc1C(F)(F)F (stereo partly drawn) [Example 16, (5aR,6S,6aS)-3-((5-(6-(4,4-difluoro-3-hydroxy-3-methyl-butoxy)-2-methyl-pyridin-3-yl)-2-fluoro-4-(trifluoro-methyl)-benzyl)-oxy)-5,5a,6,6a-tetrahydro-cyclo-propa[4,5]cyclopenta [1,2-c]pyridine-6-carboxylic acid] | – | 10.4 nM |
| CC(C)(O)CCOc1cc(F)c(-c2cc(COc3cc4c(cn3)[C@H]3[C@@H](C4)[C@@H]3C(=O)O)c(F)cc2C(F)(F)F)c(F)c1 [Example 10, (5aR,6S,6aS)-3-((2′,4,6′-trifluoro-4′-(3-hydroxy-3-methylbutoxy)-6-(trifluoromethyl)-[1,1′-biphenyl]-3-yl)methoxy)-5,5a,6,6a-tetrahydrocyclo-propa[4,5]cyclopenta [1,2-c]pyridine-6-carboxylic acid] | 6.4 nM | 27.2 nM |
| Cc1cc(OCCC(C)(C)O)ccc1-c1cc(COc2cc3c(cn2)[C@H]2[C@@H](C3)[C@@H]2C(=O)O)c(F)cc1C(F)(F)F [Example 1] | 16.7 nM | 9.89 nM |
| Cc1nc(OCCC(C)(C)O)ccc1-c1cc(COc2cc3c(cn2)[C@H]2[C@@H](C3)[C@@H]2C(=O)O)c(F)cc1C(F)(F)F [Example 3, (5aR,6S,6aS)-3-((2-fluoro-5-(6-(3-hydroxy-3-methyl-butoxy)-2-methyl-pyridin-3-yl)-4-(trifluoromethyl)-benzyl)-oxy)-5,5a, 6,6a-tetrahydro-cyclopropa[4,5] cyclopenta[1,2-c] pyridine-6-carboxylic acid] | 1.52 nM | 4.95 nM |
| CC(C)(O)CCOc1ccc(-c2cc(COc3cc4c(cn3)[C@H]3[C@@H](C4)[C@@H]3C(=O)O)c(F)cc2C(F)(F)F)cc1F [Example 6, (5aR,6S,6aS)-3-((3′,4-difluoro-4′-(3-hydroxy-3-methyl-butoxy)-6-(trifluoro-methyl)-[1,1′-biphenyl]-3-yl)methoxy)-5,5a,6,6a-tetrahydrocyclopropa [4,5]cyclopenta[1,2-c] pyridine-6-carboxylic acid] | 10.9 nM | 14.7 nM |
| CC(C)(O)CCOc1ncc(-c2cc(COc3cc4c(cn3)[C@H]3[C@@H](C4)[C@@H]3C(=O)O)c(F)cc2C(F)(F)F)cc1F [Example 15, (5aR,6S,6aS)-3-((2-fluoro-5-(5-fluoro-6-(3-hydroxy-3-methylbutoxy)pyridin-3-yl)-4-(trifluoromethyl)benzyl)oxy)-5,5a,6,6a-tetrahydrocyclopropa[4,5]cyclopenta[1,2-c]pyridine-6-carboxylic acid] | 4.88 nM | 7.97 nM |
| Cc1cc(OCCC(O)C(C)(C)O)cc(C)c1-c1cc(COc2cc3c(cn2)[C@H]2[C@@H](C3)[C@@H]2C(=O)O)c(F)cc1F (stereo partly drawn) [Example 18, (5aR,6S,6aS)-3-((4′-((3,4-dihydroxy-4-methylpentyl)oxy)-4,6-difluoro-2′,6′-dimethyl-[1,1′-biphenyl]-3-yl)methoxy)-5,5a,6,6a-tetrahydrocycloprop[4,5]cyclopenta[1,2-c]pyridine-6-carboxylic acid] | – | 19.2 nM |
| CC(O)(CCOc1ccc(-c2cc(COc3cc4c(cn3)[C@H]3[C@@H](C4)[C@@H]3C(=O)O)c(F)cc2C(F)(F)F)cc1)C(F)F (stereo partly drawn) [Example 12, (5aR,6S,6aS)-3-((4′-(4,4-difluoro-3-hydroxy-3-methylbutoxy)-4-fluoro-6-(trifluoromethyl)-[1,1′-biphenyl]-3-yl)methoxy)-5,5a,6,6a-tetrahydrocyclopropa[4,5]cyclopenta[1,2-c]pyridine-6-carboxylic acid] | 12.5 nM | 20.3 nM |
| CC(C)(O)CCOc1ccc(-c2cc(COc3cc4c(cn3)[C@H]3[C@@H](C4)[C@@H]3C(=O)O)c(F)cc2C(F)(F)F)c(C(F)F)c1 [Example 13, (5aR,6S,6aS)-3-((2'-(difluoromethyl)-4-fluoro-4'-(3-hydroxy-3-methyl-butoxy)-6-(trifluoromethyl)-[1,1'-biphenyl]-3-yl)-methoxy)-5,5a,6,6a-tetra-hydrocyclo-propa[4,5]cyclopenta [1,2-c]pyridine-6-carboxylic acid] | 9.66 nM | 5.94 nM |
| CC(C)(O)CCOc1ccc(-c2cc(COc3cc4c(cn3)[C@H]3[C@@H](C4)[C@@H]3C(=O)O)c(F)cc2C(F)F)cc1F [Example 11, (5aR,6S,6aS)-3-((6-(di-fluoro-methyl)-3',4-di-fluoro-4'-(3-hydroxy-3-methyl-butoxy)-[1,1'-biphenyl]-3-yl)methoxy)-5,5a,6,6a-tetrahydro-cyclopropa[4,5]cyclo-penta[1,2-c]pyridine-6-carboxylic acid] | 16.7 nM | 17.6 nM |
| Cc1cc(OCCC(C)(C)O)ccc1-c1cc(COc2cc3c(cn2)[C@H]2[C@@H](C3)[C@@H]2C(=O)O)c(F)cc1C(F)F [Example 4, (5aR,6S,6aS)-3-((6-(difluoro-methyl)-4-fluoro-4′-(3-hydroxy-3-methyl-butoxy)-2′-methyl-[1,1′-biphenyl]-3-yl)methoxy)-5,5a,6,6a-tetrahydrocyclo-propa[4,5] cyclopenta[1,2-c] pyridine-6-carboxylic acid] | 14.4 nM | 5.25 nM |
| Cc1cc(OCCCS(C)(=O)=O)ccc1-c1cc(COc2cc3c(cn2)[C@H]2[C@@H](C3)[C@@H]2C(=O)O)c(F)cc1C(F)(F)F [Example 2, (5aR,6S,6aS)-3-((4-fluoro-2′-methyl-4′-(3-(methyl-sulfonyl)-propoxy)-6-(tri-fluoromethyl)-[1,1′-biphenyl]-3-yl)methoxy)-5,5a,6,6a-tetrahydrocyclo-propa[4,5]cyclopenta [1,2-c]pyridine-6-carboxylic acid] | 5.75 nM | 2.98 nM |

From patent US9932311B2, “Antidiabetic tricyclic compounds” (Merck Sharp & Dohme Corp., priority 2013, dated 2018)
